What was measured:
[1] = Safety and compliance, additional DMD Phase 2 study (26 boys); format: in vivo, human
Procedure: An additional Phase 2 study was carried out as follows to evaluate 3-[5-(2-fluoro-phenyl)-[1,2,4]oxadiazol-3-yl]-benzoic acid safety, compliance, PK, effects on full-length muscle dystrophin protein expression, and clinical activity in patients with nonsense-mutation-mediated DMD.
3-[5-(2-fluoro-phenyl)-[1,2,4]oxadiazol-3-yl]-benzoic acid was administered orally for 28 days at dose levels of 4, 4, 8 mg/kg (low dose); 10, 10, 20 mg/kg (mid dose); and 20, 20, 40 mg/kg (high dose) after breakfast, lunch, and dinner, respectively. 26 boys (ages: 5-13 years; stop codons: 15 UGA, 6 UAG, 5 UAA; baseline serum CK: 8,645-49,500 IU; steroid use: 19/26) completed 3-[5-(2-fluoro-phenyl)-[1,2,4]oxadiazol-3-yl]-benzoic acid at the low (n=6) or mid (n=20) dose levels. […] Compliance was >98% for both dose levels. Day 1 and Day 28 PK indicate stable plasma exposures over time; however, exposures were lower than in 3-[5-(2-fluoro-phenyl)-[1,2,4]oxadiazol-3-yl]-benzoic acid-treated healthy adult volunteers and cystic fibrosis patients. […] Relative to baseline, post-treatment increases in in vivo dystrophin expression occurred in 4/6 (67%) (90% CI 27-94%) and 10/20 (50%) (90% C1-30-70%) boys at low and mid doses, respectively.

[2] = Pharmacokinetics, DMD Phase 2 interim analysis; format: in vivo, human; settings: for Cmin: DMD patients, 4, 4, 8 mg/kg
Procedure: 3-[5-(2-Fluoro-phenyl)-[1,2,4]oxadiazol-3-yl]-benzoic acid is provided in a formulation described herein. Treatment is administered over 28 days for each treatment cohort. An initial cohort of patients are treated daily for 28 days with 3-[5-(2-fluoro-phenyl)-[1,2,4]oxadiazol-3-yl]-benzoic acid at a given dose level (e.g., 4-, 4-, and 8-mg/kg) TID. If the initial patients tolerate the drug, then a second cohort of patients receives 3-[5-(2-fluoro-phenyl)-[1,2,4]oxadiazol-3-yl]-benzoic acid at a higher dose level (e.g., 10-, 10-, and 20-mg/kg) TID. Thus, each patient receives a total of 84 doses of 3-[5-(2-fluoro-phenyl)-[1,2,4]oxadiazol-3-yl]-benzoic acid. After the end of 28 days of treatment, each patient is followed for an additional 28 days without treatment.
At each dose level, it is recommended that 3-[5-(2-fluoro-phenyl)-[1,2,4]oxadiazol-3-yl]-benzoic acid be taken TID at 6-, 6-, and 12-hour (±˜30 minutes) intervals. Ideally each dose is taken within ˜30 minutes after a meal (e.g., ˜7:00 AM after breakfast, ˜1:00 PM after lunch, and ˜7:00 PM after dinner). While it is realized that variations in dosing schedule may occur in the outpatient setting, it is recommended that the prescribed regimen (including dosing intervals and the relationship of dosing to meals) be followed closely on the days of PK sample collection. Clinical endpoints are evaluated using the procedures set forth above.
Six patients were administered 3-[5-(2-fluoro-phenyl)-[1,2,4]oxadiazol-3-yl]-benzoic acid TID in a regimen consisting of 4 mg/kg with breakfast, 4 mg/kg with lunch, and 8 mg/kg with supper, for a total daily dose of 16 mg/kg. All patients were ambulatory, but had characteristic signs and symptoms of DMD, including some degree of muscle dysfunction and elevated serum CK concentrations. […] These adverse events included diarrhea in 1 patient; abdominal pain in 1 patient; and flatulence in 2 patients. […] Treatment compliance was good, with patients taking >95% of the intended total drug treatment for 28 days at the lower dose level. […]

- Cmin ([2]; Day 1, N = 6, mean): 500 ng/mL
- Cmin ([2]; Day 27, N = 6, mean): 600 ng/mL
SMILES: O=C(O)c1cccc(-c2noc(-c3ccccc3F)n2)c1 [3-[5-(2-fluoro-phenyl)-[1,2,4]oxadiazol-3-yl]-benzoic acid]
- Severity of adverse events and laboratory abnormalities ([1]; 26 boys, low (n=6) or mid (n=20) dose, 28 days oral): mild-moderate
- Dose relation of adverse events and laboratory abnormalities ([1]; low 4, 4, 8 mg/kg versus mid 10, 10, 20 mg/kg): no dose-related changes in frequency or severity
- Drug accumulation / induction of metabolism ([2]; 27-day treatment interval between sampling periods): neither evidence of drug accumulation nor evidence of decreased drug levels due to the induction of metabolism

From patent US9289398B2, “Methods for the production of functional protein from DNA having a nonsense mutation and the treatment of disorders associated therewith” (PTC Therapeutics, Inc., priority 2006, dated 2016)
